Results from patent US20070213291A1, “Therapeutically useful synthetic oligonucleotides” (priority 1999, published 2007).

Legend:
Type in all cases: cell-based
[1] = system: Jurkat human leukemia T cells; assay: Apoptosis by phosphatidylserine/annexin V-FITC flow cytometry; conditions: 50 μM sequence
Method: (§1) The redistribution of phosphatidylserine in the plasma membrane during apoptosis was measured by flow cytometry using FITC-conjugated annexin V (BD Pharmingen, San Diego, Calif.). NuMA release into the supernatant was determined using a commercial ELISA kit (Oncogen/Calbiochem, Cambridge, Mass.).
Jurkat human leukemia T cells were incubated with 50 μM of 3, 4, 5, 6 and 7 GT base sequences, a 5 base ACGT sequence, 6 base AG, GG, AGT and CGT sequences and a 7 base GG sequence. […]
Jurkat human leukemia T cells were incubated with GT-rich or AC-rich sequences derived from the murA gene of Mycobacterium phlei (GenBank: Accession Number X99776). Inhibition of proliferation was measured by the reduction of MTT as in Example 3, cell cycle arrest was detected by flow cytometry using propidium iodide as in Example 21 and apoptosis was evaluated by flow cytometry using annexin-V-FITC as in Example 23.

[2] = system: Jurkat human leukemia T cells; assay: NuMA release into supernatant (ELISA); conditions: for % NuMA released (treated vs untreated cells): Jurkat, 50 μM sequence
Method: as §1
Jurkat human leukemia T cells were incubated with 50 μM of 3, 4, 5, 6 and 7 GT base sequences, a 5 base ACGT sequence, 6 base AG, GG, AGT and CGT sequences and a 7 base GG sequence.
Jurkat human leukemia T cells (1×10^6/ml) were incubated with 6 and 27 GT base sequences (Table 32). NuMA was determined as in Example 23.
Jurkat human cell leukemia T cells were incubated for 24 h with 6 base GT SEQ ID NO:25, complementary 6 base AC SEQ ID NO:79, and 6 base GT SEQ ID NO:25+6 base AC SEQ ID NO:79. GT SEQ ID NO:25 and AC SEQ ID NO:79 were hybridized by mixing the sequences (1:1) and heating for 10 minutes at 65° C. As controls, GT SEQ ID NO:25 and AC SEQ ID NO:79 were heated for 10 minutes at 65° C. (Table 33). Apoptosis was evaluated as in Example 23.

[3] = system: Jurkat human leukemia T cells; assay: Inhibition of Jurkat human leukemia T cell proliferation (MTT reduction); conditions: 100 μg/ml sequence, 48 h, 2.5×10^5 cells/ml
Outline: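 Jurkat cells at 2.5×10^5 cells/ml exposed to 100 μg/ml of 2–45-base A/C/G/T sequences (0 μg/ml control) for 48 h, 37° C, 5% CO2. Viability by MTT reduction read at 570 nm.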

[4] = system: THP-1 human acute monocytic leukemia cells; assay: Cytokine production by THP-1 cells (ELISA); conditions: THP-1, 1×10^6 cells, 100 μg/ml, 48 h; for ↑ IL-12 (fold increase treated vs control cells): p70 complex and free p40
Outline: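 1×10^6 cells exposed to 100 μg/ml of each oligonucleotide sequence for 48 h at 37° C in 5% CO2, unless stated otherwise. Cytokines quantified in culture supernatant by ELISA, IL-12 assay detecting both p70 and free p40; values are fold increase over untreated control cells.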

rhesus monkey PBMCs = assay: Cytokine production by rhesus monkey PBMC (ELISA); conditions: PBMC of 4 healthy rhesus monkeys, 100 μg/ml, 48 h
Method: (§2) Unless stated otherwise, 1×10^6 cells were incubated with 100 μg/ml of each of the sequences tested for 48 h at 37° C. in 5% CO2. Production of cytokines IL-6, IL-10, IL-12, IL-1beta and TNF-alpha was determined in pg/ml in 100 μl of culture supernatant using the appropriate commercial ELISA (BioSource, Camarillo Calif.). The IL-12 ELISA measures both IL-12 p70 complex and free p40 subunit. Results are expressed as the “fold” (×) increase in cytokine production by treated cells compared to control cells.
PBMCs were isolated from 4 healthy rhesus monkeys as in Example 35. PBMCs were incubated with 6 base GT, AGT, CGT, AG, CG ands GG sequences and production of the cytokines IL-6, IL-12 and TNF-alpha was determined (Table 42).

[5] = system: human peripheral blood mononuclear cells; assay: Cytokine production by human PBMC (ELISA); conditions: PBMC of 7 healthy humans, 100 μg/ml, 48 h
Method: as §2
Peripheral blood mononuclear cells (hereinafter, “PBMCs”) were isolated from 7 healthy humans by Ficoll-Hypaque (Amersham Pharmacia Biotech, Baie d'Urfée, Québec, Canada) by density gradient centrifugation of whole blood. PBMCs were incubated with 6 base GT, AGT, CGT, AG, CG and GG sequences and production of the cytokines IL-1beta, IL-6, IL-10 and IL-12 were determined.

chimpanzee PBMCs = assay: Cytokine production by chimpanzee PBMC (ELISA); conditions: PBMC of 4 healthy chimpanzees, 100 μg/ml, 48 h
Method: as §2
PBMCs were isolated from 4 healthy chimpanzees as in Example 35. Chimpanzee PBMCs were incubated with 6 base GT, AGT, CGT, AG, CG and GG sequences and production of the cytokines IL-10, IL-12 and TNF-alpha was determined (Table 41).

[6] = system: Jurkat human leukemia T cells; assay: Cell cycle stage in Jurkat cells (propidium iodide flow cytometry); conditions: Jurkat, 24 h, 100 μg/ml
Outline: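 Exponentially growing Jurkat cells were exposed for 24 h to 2–45-base A/C/G/T oligonucleotides, or at 1×10^6 cells/ml to 6-base GT and AC strands, alone (heated 10 min, 65 °C) or hybridized 1:1. Detergent-, trypsin-, RNase- and spermine-treated nuclei were propidium iodide-stained and scored for G0/G1, early/mid/late S and G2/M by doublet-discriminating flow cytometry.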

Substance | % of cells in apoptosis (positive for PS/A-V staining) [1] [%] | % NuMA released (treated vs untreated cells) [2] [%] | % INHIBITION of Jurkat human leukemia T cell proliferation [3] [%] | ↑ IL-6 (fold increase treated vs control cells) [4] [x] | ↑ IL-12 (fold increase treated vs control cells) [4] [x] | IL-10 fold increase: mean +/− SD (rhesus monkey PBMCs) | IL-12 fold increase: mean +/− SD (rhesus monkey PBMCs) | TNF-alpha fold increase: mean +/− SD (rhesus monkey PBMCs) | IL-1 beta fold increase: mean +/− SD [5] | IL-6 fold increase: mean +/− SD [5] | IL-10 fold increase: mean +/− SD [5] | IL-12 fold increase: mean +/− SD [5] | IL-10 fold increase: mean +/− SD (chimpanzee PBMCs) | IL-12 fold increase: mean +/− SD (chimpanzee PBMCs) | TNF-alpha fold increase: mean +/− SD (chimpanzee PBMCs) | further results
CG(GT)1A (DNA CGGTA; unmodified DNA) [SEQ ID NO:80] | 6 | 9 |  |  |  |  |  |  |  |  |  |  |  |  |  | 
GTGG (unmodified DNA) [SEQ ID NO:52] | 24 | 60 | 52 |  |  |  |  |  |  |  |  |  |  |  |  | 
GGGTG (unmodified DNA) [SEQ ID NO:61] | 25 | 92 | 50 |  |  |  |  |  |  |  |  |  |  |  |  | 
GGGGGG [SEQ ID NO:44] | 5 | 0 | 26 | 15.1 | 0.0 | 2.1 +/− 1.0 fold increase | 10.7 +/− 5.6 fold increase | 13.9 +/− 8.5 fold increase | 7.1 +/− 9.4 fold increase | 21.0 +/− 14.7 fold increase | 1.7 +/− 1.6 fold increase | 7.0 +/− 12.5 fold increase | 11.2 +/− 9.1 fold increase | 15.1 +/− 10.0 fold increase | 13.8 +/− 6.5 fold increase | 
GGTG (unmodified DNA) [SEQ ID NO:56] | 24 | 112 | 54 |  |  |  |  |  |  |  |  |  |  |  |  | 
GGGGTGG (unmodified DNA) [SEQ ID NO:62] | 30 | 123 | 41 |  |  |  |  |  |  |  |  |  |  |  |  | 
CCGTCC [SEQ ID NO:28] | 6 | 0 | 11 | 12.6 | 3.8 | 1.1 +/− 0.2 fold increase | 10.1 +/− 3.7 fold increase | 14.2 +/− 3.7 fold increase | 2.1 +/− 1.8 fold increase | 10.4 +/− 13.0 fold increase | 1.0 +/− 0.1 fold increase | 5.9 +/− 10.7 fold increase | 3.8 +/− 2.8 fold increase | 13.3 +/− 8.4 fold increase | 10.3 +/− 5.7 fold increase | 
GGGGGGGTGGGGGGGTGGGGGGGTGGG (unmodified DNA) [SEQ ID NO:4] |  |  | 11 |  |  |  |  |  |  |  |  |  |  |  |  | % of cells in phase: G0/G1 [6]: 36.5%; % of cells in phase: G2/M [6]: 22.3%; % of cells in phase: SE [6]: 16.3%; % of cells in phase: SL [6]: 11.1%; % of cells in phase: SM [6]: 13.8%; Arrest (cell cycle) [6]: None; % NUMA RELEASED ([2]; Jurkat 1×10^6/ml): 90%
GG(GT)1 | 21 | 64 |  |  |  |  |  |  |  |  |  |  |  |  |  | 
GGGCGG (unmodified DNA) [SEQ ID NO:46] | 16 | 11 | 23 | 9.8 | 2.3 | 1.2 +/− 0.2 fold increase | 11.0 +/− 4.4 fold increase | 16.8 +/− 4.1 fold increase | 1.2 +/− 0.3 fold increase | 15.8 +/− 16.2 fold increase | 1.0 +/− 0.1 fold increase | 3.0 +/− 3.8 fold increase | 4.7 +/− 3.4 fold increase | 15.8 +/− 10.4 fold increase | 14.1 +/− 6.6 fold increase | 
AAGTAA [SEQ ID NO:27] | 20 | 56 | 13 | 12.8 | 6.0 | 0.9 +/− 0.1 fold increase | 7.6 +/− 2.6 fold increase | 6.0 +/− 5.0 fold increase | 1.3 +/− 0.5 fold increase | 9.6 +/− 7.3 fold increase | 1.0 +/− 0.1 fold increase | 2.4 +/− 2.2 fold increase | 2.1 +/− 1.1 fold increase | 13.2 +/− 8.2 fold increase | 7.9 +/− 3.9 fold increase | 
GGTGG (unmodified DNA) [SEQ ID NO:60] | 25 | 120 | 50 |  |  |  |  |  |  |  |  |  |  |  |  | 
GG(GG)1GGG (DNA GGGTGGG; unmodified DNA) | 12 | 26 |  |  |  |  |  |  |  |  |  |  |  |  |  | 
